Values quoted from earlier work in patent publication US8134031B2, “Extraction process for aldehyde product separation and catalyst recovery” (Dow Global Technologies LLC, priority 2007, dated 2012).
Structures can show the parent of a compound that is named as a salt.

Conditions: 22° C.; experimental value (Yaw's Handbook)

SMILES	Solubility in water
CCCC(=O)OCC [Ethyl butyrate]	6168 ppmw
CCCOC=O [Propyl formate]	22000 ppmw

Same assay, conditions: 25° C.

SMILES	H2O solubility
C=CCCCCCC [1-Octene]	4.10 ppm
CCCCCCC [Heptane]	2.24 ppmw
CCCCCC [Hexane]	13.3 ppmw

Same assay, conditions: 25° C.; estimated value (Yaw's Handbook)

Solubility in water	SMILES
25882 ppmw	CCC(O)C(C)C (stereo not drawn) [2-Methyl-3-pentanol]
28212 ppmw	CCC(C)C=O (stereo not drawn) [2-Methylbutanal]
27392 ppmw	CC(C)CC=O [3-Methylbutanal]
22865 ppmw	CCC(=O)C(C)C [Ethyl isopropyl ketone]
16787 ppmw	CCCOC(C)=O [Propyl acetate]

Same assay, conditions: 25° C.; experimental value (Yaw's Handbook)

Solubility in water	SMILES
1516 ppmw	CCCCCCC=O [1-Heptanal]
22000 ppmw	CCCCCO [1-Pentanol]
16400 ppmw	CCCCC(C)=O [2-Hexanone]
45000 ppmw	CCCC(C)O (stereo not drawn) [2-Pentanol]
14700 ppmw	CCCC(=O)CC [3-Hexanone]
27000 ppmw	CC(C)CCO [3-Methyl-1-butanol]
56000 ppmw	CC(C)C(C)O (stereo not drawn) [3-Methyl-2-butanol]
52000 ppmw	CCC(O)CC [3-Pentanol]
34000 ppmw	CCC(=O)CC [Diethyl ketone]
11250 ppmw	CC(C)OC(C)C [Diisopropyl ether]
73720 ppmw	CCOC(C)=O [Ethyl acetate]
22000 ppmw	CCOC(=O)CC [Ethyl propanoate]
13.3 ppmw	CCCCCC [Hexane]
60800 ppmw	CC(=O)C(C)C [Methyl isopropyl ketone]
55360 ppmw	CCCC(C)=O [Methyl propyl ketone]
11700 ppmw	CCCCC=O [Pentanal]

SMILES	Solubility in water
C=CCCCCCC [1-Octene]	4.10 ppmw
CCC(C)CO (stereo not drawn) [2-Methyl-1-butanol]	30000 ppmw
O=C1CCCCC1 [Cyclohexanone]	93190 ppmw
CCCCCCC [Heptane]	2.24 ppmw
CC(=O)OC(C)C [Isopropyl acetate]	29000 ppmw
CCCC(=O)OC [Methyl butyrate]	15000 ppmw
C=C(C)C(C)=O [Methyl isopropenyl ketone]	47000 ppmw
